Measurements published in PubChem BioAssay (NCI).
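Grown in 96-well plates, cells were treated for 48 hours with each compound at five concentrations. Insufficient inhibition: endpoint recorded as highest concentration tested. TGI marks complete inhibition of growth.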

Legend:
Experiment in all cases: NCI tumour cell line growth inhibition, 48 h
[1] = tested on: A498 renal
[2] = tested on: A549 NSCLC
[3] = tested on: CAKI-1 renal
[4] = tested on: CCRF-CEM leukemia
[5] = tested on: COLO 205 colon
[6] = tested on: DLD-1 colon
[7] = tested on: DMS 114 small cell lung
[8] = tested on: DMS 273 small cell lung
[9] = tested on: EKVX NSCLC
[10] = tested on: HCC-2998 colon
[11] = tested on: HCT-116 colon
[12] = tested on: HCT-15 colon
[13] = tested on: HL-60(TB) leukemia
[14] = tested on: HOP-62 NSCLC
[15] = tested on: HOP-92 NSCLC
[16] = tested on: HT29 colon
[17] = tested on: IGROV1 ovarian
[18] = tested on: K-562 leukemia
[19] = tested on: KM12 colon
[20] = tested on: KM20L2 colon
[21] = tested on: LOX IMVI melanoma
[22] = tested on: M19-MEL melanoma
[23] = tested on: MALME-3M melanoma
[24] = tested on: MCF7 breast
[25] = tested on: MOLT-4 leukemia
[26] = tested on: NCI-H226 lung
[27] = tested on: NCI-H23 lung
[28] = tested on: NCI-H460 lung
[29] = tested on: NCI-H522 lung
[30] = tested on: NCI/ADR-RES ovarian
[31] = tested on: OVCAR-3 ovarian
[32] = tested on: OVCAR-4 ovarian
[33] = tested on: OVCAR-5 ovarian
[34] = tested on: OVCAR-8 ovarian
[35] = tested on: P388 leukemia
[36] = tested on: RPMI-8226 leukemia
[37] = tested on: RXF 393 renal
[38] = tested on: SF-268 CNS
[39] = tested on: SF-295 CNS
[40] = tested on: SF-539 CNS
[41] = tested on: SK-MEL-2 melanoma
[42] = tested on: SK-MEL-28 melanoma
[43] = tested on: SK-MEL-5 melanoma
[44] = tested on: SK-OV-3 ovarian
[45] = tested on: SN12C renal
[46] = tested on: SN12K1 renal
[47] = tested on: SNB-19 CNS
[48] = tested on: SNB-75 CNS
[49] = tested on: SNB-78 CNS
[50] = tested on: SW-620 colon
[51] = tested on: U251 CNS
[52] = tested on: UACC-257 melanoma
[53] = tested on: UACC-62 melanoma
[54] = tested on: UO-31 renal
[55] = tested on: XF 498 CNS

With NCCCCCC(CCN)SCC1OC(n2cnc3c(N)ncnc32)C(O)C1O (stereo not given) the TGI [1] was > 1.5 mM, the TGI [2] was > 1.5 mM and the TGI [3] was 1.27 mM. The TGI [4] was > 1.5 mM, the TGI [5] was > 1.5 mM and the TGI [6] was > 1.5 mM. The TGI [7] was > 1.5 mM, the TGI [8] was > 1.09 mM and the TGI [9] was > 1.5 mM. For the same compound, the TGI [10] was > 1.5 mM, the TGI [11] was > 1.5 mM and the TGI [12] was > 1.5 mM. The TGI [13] was > 1.5 mM, the TGI [14] was > 1.5 mM and the TGI [15] was > 1.24 mM. The TGI [16] was > 1.5 mM, the TGI [17] was > 1.5 mM and the TGI [18] was > 1.5 mM. For the same compound, the TGI [19] was > 1.5 mM, the TGI [20] was > 1.5 mM and the TGI [21] was > 1.5 mM. For the same compound, the TGI [22] was > 1.5 mM, the TGI [23] was > 1.5 mM and the TGI [24] was > 1.5 mM. The TGI [25] was > 1.5 mM, the TGI [26] was > 1.5 mM and the TGI [27] was > 1.5 mM. The TGI [28] was > 1.5 mM, the TGI [29] was > 1.5 mM and the TGI [30] was > 1.5 mM. The TGI [31] was > 1.5 mM, the TGI [32] was > 1.5 mM and the TGI [33] was > 1.5 mM. The TGI [34] was > 1.5 mM, the TGI [35] was > 1.5 mM and the TGI [36] was 1.14 mM. The TGI [37] was > 1.5 mM, the TGI [38] was > 1.5 mM and the TGI [39] was > 1.5 mM. For the same compound, the TGI [40] was > 1.24 mM, the TGI [41] was > 1.5 mM and the TGI [42] was > 1.5 mM. The TGI [43] was > 1.5 mM, the TGI [44] was > 1.5 mM and the TGI [45] was > 1.18 mM. The TGI [46] was > 1.5 mM, the TGI [47] was > 1.5 mM and the TGI [48] was > 1.5 mM. The TGI [49] was > 1.5 mM, the TGI [50] was > 1.5 mM and the TGI [51] was > 1.5 mM. The TGI [52] was > 1.5 mM, the TGI [53] was > 1.5 mM and the TGI [54] was > 1.32 mM. For the same compound, the TGI [55] was > 0.015 mM.
